Here are results for nine molecules from US8492559B2, “Substituted indole compounds” (Gruenenthal GmbH, priority 2009, dated 2013).

In general, inhibition refers to the change of the read-out against control, counted positive when it falls.

In one test the target is T1, human B1R receptor (hB1R) (Homo sapiens, UniProt P46663).
T1 construct: expressed in transfected cells; host or cells: CHO K1 cells
T1 sequence (P46663 1-353): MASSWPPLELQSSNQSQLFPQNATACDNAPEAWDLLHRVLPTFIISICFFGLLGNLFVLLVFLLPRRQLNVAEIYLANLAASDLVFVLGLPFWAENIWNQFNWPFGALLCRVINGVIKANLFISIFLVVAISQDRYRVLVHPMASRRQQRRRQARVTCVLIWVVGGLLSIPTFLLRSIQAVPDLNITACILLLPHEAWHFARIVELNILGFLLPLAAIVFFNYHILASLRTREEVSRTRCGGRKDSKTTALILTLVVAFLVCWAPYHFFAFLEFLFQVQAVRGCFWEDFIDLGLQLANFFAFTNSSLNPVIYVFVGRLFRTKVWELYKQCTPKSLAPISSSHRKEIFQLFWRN
Description: Functional investigation on the bradykinin 1 receptor (B1R), FLIPR Ca2+ assay, hB1R cells. The test is classed as cell-based. Conditions: 10 μM test substance; CHO K1 cells with human B1R; agonist Lys-Des-Arg9 bradykinin; % of maximum achievable inhibition; 10 µM. As for the experimental part: The agonistic or antagonistic action of substances can be quantified on the bradykinin 1 receptor (B1R) of the human and rat species with ectopically expressing cell lines (CHO K1 cells) and with the aid of a Ca^2+-sensitive dye (Fluo-4) using a fluorescent imaging plate reader (FLIPR). The indication in % activation is based on the Ca^2+ signal after addition of Lys-Des-Arg^9 bradykinin (0.5 nM) or Des-Arg^9 bradykinin (100 nM). Antagonists lead to a suppression of the Ca^2+ influx following administration of the agonist. The % inhibition in comparison with the maximum achievable inhibition is indicated.
1. Functional Investigation on the Bradykinin 1 Receptor (B1R)
The agonistic or antagonistic action of substances can be determined on the bradykinin 1 receptor (B1R) of the human and rat species with the following assay. According to this assay, the Ca^2+ inflow through the channel is quantified with the aid of a Ca^2+-sensitive dye (Fluo-4 type, Molecular Probes Europe BV, Leiden, Netherlands) in a fluorescent imaging plate reader (FLIPR, Molecular Devices, Sunnyvale, USA).
Chinese hamster ovary cells (CHO K1 cells) which are stably transfected with the human B1R gene (hB1R cells) or the B1R gene of the rat (rB1R cells) are used. For functional investigations these cells are plated-out onto black 96-well plates with a clear base (BD Biosciences, Heidelberg, Germany or Greiner, Frickenhausen, Germany) in a density of 20,000-35,000 cells/well. Overnight the cells are incubated at 37° C. and 5% CO2 in culture medium (hB1R cells: Ham's Nutrient Mixture F12, Gibco Invitrogen GmbH, Karlsruhe, Germany or DMEM, Sigma-Aldrich, Taufkirchen, Germany; rB1R cells: D-MEM/F12, Gibco Invitrogen, Karlsruhe, Germany) with 10 vol. % FBS (foetal bovine serum, Gibco Invitrogen GmbH, Karlsruhe, Germany or PAN Biotech GmbH, Aidenbach, Germany).
On the following day the cells are loaded with 2.13 μM Fluo-4 (Molecular Probes Europe BV, Leiden, Netherlands) in HBSS buffer (Hank's buffered saline solution, Gibco Invitrogen GmbH, Karlsruhe, Germany) with 2.5 mM probenecid (Sigma-Aldrich, Taufkirchen, Germany) and 10 mM HEPES (Sigma-Aldrich, Taufkirchen, Germany) for 60 min at 37° C. The plates are subsequently washed twice with HBSS buffer, and HBSS buffer which additionally contains 0.1% BSA (bovine serum albumin; Sigma-Aldrich, Taufkirchen, Germany), 5.6 mM glucose and 0.05% gelatine (Merck KGaA, Darmstadt, Germany) is added. After a further incubation of 20 minutes at room temperature, the plates are inserted into the FLIPR for Ca^2+ measurement.
Alternatively they are washed with buffer A (15 mM HEPES, 80 mM NaCl, 5 mM KCl, 1.2 mM CaCl2, 0.7 mM MgSO4, 2 g/l glucose, 2.5 mM probenecid) and loaded with buffer A with added 2.5 μM Fluo-4 and 0.025% Pluronic F127 (Sigma-Aldrich, Taufkirchen, Germany). The cells are then washed twice with buffer A and incubated for 30 minutes with buffer A, which additionally contains 0.05% BSA and 0.05% gelatine, at room temperature and then used for Ca^2+ measurement in the FLIPR. The Ca^2+-dependent fluorescence is measured here before and after addition of substances (λex=488 nm, λem=540 nm). The quantification is performed by measuring the highest fluorescence intensity (FC, fluorescence counts) over time.
The FLIPR protocol comprises two additions of substance. Test substances (10 μM) are first pipetted onto the cells and the Ca^2+ inflow is compared with the control (hB1R: Lys-Des-Arg^9 bradykinin>=50 nM; rB1R: Des-Arg^9 bradykinin 10 μM). The value in % activation based on the Ca^2+ signal after addition of Lys-Des-Arg^9 bradykinin (>=50 nM) or Des-Arg^9 bradykinin (10 μM) is obtained therefrom. After incubation for 10-20 minutes, Lys-Des-Arg^9 bradykinin (hB1R) or Des-Arg^9 bradykinin (rB1R) is applied in the EC80 concentration and the inflow of Ca^2+ is likewise determined.
Antagonists lead to a suppression of the Ca^2+ inflow. The % inhibition in comparison with the maximum achievable inhibition is calculated. […]
Regarding `O=C(CCn1ccc2ccc(N3Cc4cccc(Cl)c4C3=O)cc21)N1CCC2(CC1)CCN(c1ccncc1)CC2` [G_CC-67, 7-Chloro-2-[1-[3-oxo-3-(3-pyridin-4-yl-3,9-diazaspiro[5.5]undecan-9-yl)-propyl]-1H-indol-6-yl]-2,3-dihydro-isoindol-1-one], the “B1R antagonism, human [10 μM] % inhibition” value is reported as 99%.

The test is the same for the next values; noted with them: CHO-K1, 10 μM test substance; CHO K1 cells with human B1R; agonist Lys-Des-Arg9 bradykinin; % of maximum achievable inhibition; read-out: B1R antagonism, human [10 μM] % inhibition.
In the case of `COc1cc(C)c(S(=O)(=O)Nc2cccc3ccn(CC(=O)N4CCC5(CC4)CCN(Cc4ccccc4)C5=O)c23)c(C)c1` [G_CC-32, N-[1-[2-(3-Benzyl-4-oxo-3,8-diazaspiro[4.5]decan-8-yl)-2-oxo-ethyl]-1H-indol-7-yl]-4-methoxy-2,6-dimethyl-benzenesulfonic acid amide], the inhibition at 10 µM stood at 73%.
Turning to `COc1cc(C)c(S(=O)(=O)Nc2cccc3ccn(CCC(=O)N4CCN(CC5CCN(C)CC5)CC4)c23)c(C)c1` [G_CC-43, 4-Methoxy-2,6-dimethyl-N-[1-[3-[4-[(1-methyl-piperidin-4-yl)-methyl]-piperazin-1-yl]-3-oxo-propyl]-1H-indol-7-yl]-benzenesulfonic acid amide], the inhibition at 10 µM turned out to be 100%.
Same read-out and setting: next, `COc1cc(C)c(S(=O)(=O)Nc2cccc3ccn(CCC(=O)NCCC4CCN(c5ccncc5)CC4)c23)c(C)c1` [G_CC-47, 3-[7-[[(4-Methoxy-2,6-dimethyl-phenyl)sulfonyl]amino]-1H-indol-1-yl]-N-[2-(1-pyridin-4-yl-piperidin-4-yl)-ethyl]-propionamide]: 100%; `COc1cc(C)c(S(=O)(=O)Nc2cccc3ccn(CCC(=O)N4CCC5(CC4)CCN(c4ccncc4)CC5)c23)c(C)c1` [G_CC-54, 4-Methoxy-2,6-dimethyl-N-[1-[3-oxo-3-(3-pyridin-4-yl-3,9-diazaspiro[5.5]undecan-9-yl)-propyl]-1H-indol-7-yl]-benzenesulfonic acid amide]: 99%.
Still for that read-out and setting: next, `Cc1cc(S(=O)(=O)Nc2cccc3ccn(CCC(=O)N4CCN(CC5CCN(C)CC5)CC4)c23)c(C)cc1Cl` [G_CC-62, 4-Chloro-2,5-dimethyl-N-[1-[3-[4-[(1-methyl-piperidin-4-yl)-methyl]-piperazin-1-yl]-3-oxo-propyl]-1H-indol-7-yl]-benzenesulfonic acid amide]: 94%; `COc1cc(C)c(S(=O)(=O)Nc2ccc3ccn(CC(=O)N(C)CCCN4CCN(c5ccncc5)CC4)c3c2)c(C)c1` [G_CC-76, 2-[6-[[(4-Methoxy-2,6-dimethyl-phenyl)sulfonyl]amino]-1H-indol-1-yl]-N-methyl-N-[3-(4-pyridin-4-yl-piperazin-1-yl)-propyl]-acetamide]: 92%.
The same measure, in the same setting: next, `COc1cc(C)c(S(=O)(=O)Nc2cccc3ccn(CC(=O)N(C)CCCN4CCN(c5ccncc5)CC4)c23)c(C)c1` [G_CC-88, 2-[7-[[(4-Methoxy-2,6-dimethyl-phenyl)sulfonyl]amino]-1H-indol-1-yl]-N-methyl-N-[3-(4-pyridin-4-yl-piperazin-1-yl)-propyl]-acetamide]: 100%; `COc1cc(C)c(S(=O)(=O)Nc2cccc3ccn(CC(=O)N4CCC5(CC4)CCN(c4ccncc4)CC5)c23)c(C)c1` [G_CC-91, 4-Methoxy-2,6-dimethyl-N-[1-[2-oxo-2-(3-pyridin-4-yl-3,9-diazaspiro-[5.5]undecan-9-yl)-ethyl]-1H-indol-7-yl]-benzenesulfonic acid amide]: 100%.
